# “Also recorded” adds a separate entry of the source. *1 amine or outer side, *2 acyl side, *3 side chain or, on linkers, in order; H or OH if unused. Where a SMILES comes first, the peptide text is derived from it. Where no end group is shown, it is not given here. [ ]: non-standard residue; d: D form. ξ: configuration not given here. X1 = O=C(C1C[C@H](O)CN1[*:1])[*:2]; Hyp = O=C(O)[C@@H]1C[C@@H](O)CN1; ξY = NC(Cc1ccc(O)cc1)C(=O)O; ξP = O=C(O)C1CCCN1; ξA = CC(N)C(=O)O
# Columns and labels:
# [1] = cited from earlier work
# HeLa-Cx43 cells [2] = assay: Cy5.5-Cx43SP1 cells binding and blocking experiment; format: cell-based; conditions: for binding / uptake of probe by HeLa-Cx43 cells: Cy5.5-Cx43SP1 500 nmol/L, fluorescence microscopy
# Excerpt: (§1) 1) Establishment of a Cx43 highly expressing cell line: Cervical cancer HeLa cells were transfected by Cx43 gene, and cervical cancer tumor cell lines HeLa-Cx43 overexpressing Cx43 was successfully prepared. Non-transgenic HeLa cells (without C43 expression) were used as control.
# (§2) 2) Cy5.5-Cx43SP1 cells binding and blocking experiment: HeLa-Cx43 cells and the control group HeLa-Control cells were applied onto a 12-well plate in an amount of 0.5×10^6/well one day prior to experiment, and were classified into four groups: Group A: HeLa-Cx43 cells group, Group B: HeLa-Control cells group, Group C: HeLa-Cx43 cells blocking group, Group D: HeLa-Control cells blocking group. Each group comprises 3 wells and the experiment was repeated for 3 times. Into each well was added Cy5.5-Cx43SP1 with a concentration of 500 nmol/L and an amount of 1 ml. Unlabeled Cx43SP1 was added into blocking groups with a concentration of 5 μmol/L.
# HeLa-Control cells [3] = assay: Cy5.5-Cx43SP1 cells binding and blocking experiment, control cells; format: cell-based; conditions: for binding / uptake of probe by control HeLa cells: Cy5.5-Cx43SP1 500 nmol/L, HeLa without Cx43 transfection
# Excerpt: as §1, §2
# myocardial gap junctions = assay: Fluorescence microscopy of frozen tissue sections after tail vein injection of the probe; format: in vivo; conditions: 1 h after tail vein injection
# Excerpt: Meanwhile, frozen sections of tissue were further prepared and imaged under a fluorescence microscope. By using muscle as a control (FIGS. 3-a, 3-b, and 3-c), the distribution profile of the probe Cy5.5-Cx43SP in heart was observed under a fluorescence microscope.
# [4] = Biological distribution of Cy5.5-Cx43SP in normal mice, ex vivo near-infrared fluorescent imaging of main organs; conditions: mouse
# Method: 1 hour after injection of Cy5.5-Cx43SP, the mice were sacrificed, and their organs were taken out to perform ex vivo near-infrared fluorescent imaging of main organs. […] Especially, the relatively high uptake by heart is highly consistent with the fact that normal heart express relatively high Cx43 (FIG. 6).
# [5] = test system: HeLa-Cx43 tumor overexpressing Cx43; assay: Optical tumor imaging of nude mice bearing tumor; format: in vivo, nude mouse; conditions: near-infrared fluorescent imaging, 1 h after tail vein injection
# Method: (§3) HeLa-Cx43 cells overexpressing Cx43 were used to establish a subcutaneous xenograft model in nude mouse (FIG. 9, left), and the conventional subcutaneous xenograft model of HeLa cells without transfection of Cx43 were used as control group (FIG. 9, right). In vivo Cy5.5-Cx43SP1 near-infrared fluorescent imaging of tumor was carried out.
# HeLa tumor = assay: Optical tumor imaging of nude mice bearing tumor, control xenograft; format: in vivo, nude mouse; conditions: near-infrared fluorescent imaging, 1 h after tail vein injection
# Method: as §3
# HeLa-Cx43 cells [6] = assay: ^64Cu-NODA-Cx43SP1 cells binding and blocking experiment; format: cell-based
# Excerpt: as §1
# (§4) HeLa-Cx43 cells and control group HeLa-Control cells were applied onto a 12-well plate in an amount of 0.5×10^6/well one day prior to experiment, and were classified into four groups: Group A: HeLa-Cx43 cells group, Group B: HeLa-Control cells group, Group C: HeLa-Cx43 cells blocking group, Group D: HeLa-Control cells blocking group. Each group comprises 3 wells, and the experiment was repeated for 3 times. Into each well was added ^64Cu-NODA-Cx43SP1 with a concentration of 3.2 μCi/well and an amount of 1 ml. Unlabeled NODA-Cx43SP1 was added into the blocking groups with a concentration of 50 μg/well (10 times of ^64Cu-NODA-Cx43SP1).
# HeLa-Control cells [7] = assay: ^64Cu-NODA-Cx43SP1 cells binding and blocking experiment, control cells; format: cell-based; conditions: 3.2 μCi/well, HeLa without Cx43 transfection
# Excerpt: as §1, §4
molecule,measurement,setting,value
"CC(NC(=O)CN)C(=O)NCC(=O)N1C[C@@H](O)CC1C(=O)N1CCCC1C(=O)NC(Cc1ccc(O)cc1)C(N)=O (stereo partly drawn) [AAP10, Gly-Ala-Pro-Gly-4 Hyp-Pro-Tyr] (H-G[ξA]G[X1][ξP][ξY]-NH2)",stability in plasma,[1],not stable in plasma
"Cy5.5-Cx43SP1: Cx43SP1 labeled with near-infrared fluorescent dye Cy5.5 via Cy5.5-NHS (GAPG[Hyp]PY; also: Cy5.5 coupled via Cy5.5-NHS, site not given here)",binding / uptake of probe by HeLa-Cx43 cells,HeLa-Cx43 cells [2],significant specific binding
same,binding / uptake of probe by HeLa-Cx43 cells,HeLa-Cx43 cells [2]; listed as Cy5.5-Cx43SP,uptake a large amount
same,binding / uptake by HeLa-Cx43 cells after blocking,HeLa-Cx43 cells [2]; blocking with excess unlabeled Cx43SP 5 μmol/L,substantially reduced; also recorded: decreases significantly
same,binding / uptake of probe by control HeLa cells,HeLa-Control cells [3],no binding
same,binding / uptake of probe by control HeLa cells,HeLa-Control cells [3]; listed as Cy5.5-Cx43SP,not uptaken
same,uptake by control HeLa cells after blocking,HeLa-Control cells [3]; blocking with excess unlabeled Cx43SP,still do not uptake
same,gathering of probe in muscular tissue (control),myocardial gap junctions; frozen section of muscle,not gathered in the muscular tissue
same,gathering of probe in myocardial tissue,myocardial gap junctions; frozen section of myocardium,gathered in the myocardial tissue in large amount
same,location of probe within myocardium,myocardial gap junctions; frozen section of myocardium,mainly distributed at the location of gap junctions between myocardial cells
same,excretion route,[4]; 1 h after injection,"mainly excreted through liver and intestinal tract, and partly through kidney and urinary system; also recorded: mostly excreted via liver and intestinal tract"
same,organ distribution of probe,"[4]; 1 h after tail vein injection, ex vivo organs","mainly distributed in heart, liver, gastrointestinal tract; also recorded: significantly gathered in the heart, stomach, liver, gall bladder and intestinal tract"
same,gathering of probe at HeLa-Cx43 tumor,[5],gathered in the location of HeLa-Cx43 tumor overexpressing Cx43 in high concentration; also recorded: gathered at tumor site of HeLa-Cx43 overexpressing Cx43 in large amount
same,gathering of probe at control HeLa tumor,HeLa tumor,no obvious gather; also recorded: not concentrated at the HeLa tumor site
"^64Cu-NODA-Cx43SP1: NODA-modified Cx43SP1 labeled with ^64Cu, PET probe (GAPG[Hyp]PY; also: NODA chelator carrying 64Cu, site not given here)",binding of probe to HeLa-Cx43 cells,HeLa-Cx43 cells [6]; 3.2 μCi/well,significant specific binding
same,binding to HeLa-Cx43 in the blocking experiment,HeLa-Cx43 cells [6]; unlabeled NODA-Cx43SP1 50 μg/well,substantially reduced
same,binding of probe to control HeLa cells,HeLa-Control cells [7],no binding
